The source made the active and inactive calls. The calls are words filed in the database; no cut-off is given here. A value given as a limit tells only on which side of the number the result lay.

Assay [1] concerns the target T1, Tyrosinase (Agaricus bisporus) (UniProt O42713).
T1 sequence (whole entry): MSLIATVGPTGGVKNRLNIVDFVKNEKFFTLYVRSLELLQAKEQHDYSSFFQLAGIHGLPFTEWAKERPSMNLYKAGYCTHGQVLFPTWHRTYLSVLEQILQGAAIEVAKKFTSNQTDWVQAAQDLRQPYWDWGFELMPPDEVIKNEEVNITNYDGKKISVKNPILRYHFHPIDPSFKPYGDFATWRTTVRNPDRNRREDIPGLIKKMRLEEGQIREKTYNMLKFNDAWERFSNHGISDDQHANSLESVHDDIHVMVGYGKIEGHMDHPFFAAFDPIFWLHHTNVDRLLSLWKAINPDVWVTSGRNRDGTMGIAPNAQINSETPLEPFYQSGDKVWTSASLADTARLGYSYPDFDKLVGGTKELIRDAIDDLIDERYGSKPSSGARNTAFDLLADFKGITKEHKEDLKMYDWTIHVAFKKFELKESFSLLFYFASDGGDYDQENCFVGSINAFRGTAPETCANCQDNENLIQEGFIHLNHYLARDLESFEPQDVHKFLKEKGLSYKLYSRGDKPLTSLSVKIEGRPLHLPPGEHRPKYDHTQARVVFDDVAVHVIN
In words: Inhibition of mushroom tyrosinase using tyrosine as substrate pretreated for 5 mins followed by substrate addition measured after 20 mins by ELISA. A general note: In an ELISA, binding on a coated surface is turned into a signal by an enzyme label.

Assay [2] addresses T1, Tyrosinase (Agaricus bisporus). In words: Inhibition of mushroom tyrosinase at 100 uM using tyrosine as substrate pretreated for 5 mins followed by substrate addition measured after 20 mins by ELISA relative to control.

As for `COc1ccc(C(C)=O)cc1OC`, the inhibition result in assay [1] was “inactive”.

On to `C/C(=C\COC(=O)c1ccccc1O)CO[C@@H]1O[C@H](CO)[C@@H](O)[C@H](O)[C@H]1O`, for which the inhibition result in assay [1] is “Active”. Besides, the inhibition in assay [2] was > 30%.

In the case of `NC(=O)c1cccnc1`, in assay [1], the inhibition result is “Active”. Turning to `COc1ccc(C=O)cc1O`, the inhibition result in assay [1] is “inactive”.

In the case of `O=C(O)c1ccc(O)cc1`, in assay [1], the inhibition entry is “Active”. Same read-out and setting: with `O=C(O)c1ccccc1` the entry was “Active”; with `O=c1cc(-c2ccc(O)cc2)oc2c([C@@H]3O[C@H](CO)[C@@H](O)[C@H](O)[C@H]3O)c(O)cc(O)c12`, “inactive”; with `O=C(/C=C\c1ccc(O)cc1)NCCc1ccc(O)cc1`, “Active”. With `CC(=O)/C=C/[C@H]1C(C)=C[C@H](O)CC1(C)C`, the inhibition result in assay [1] is “inactive”. On to `C/C(=C\COC(=O)c1ccccc1)CO[C@@H]1O[C@H](CO)[C@@H](O)[C@H](O)[C@H]1O`, for which the inhibition entry in assay [1] is “Active”. For `CCOC(C)=O`, the inhibition result in assay [1] is “Active”.

Consider `O=C(O)c1c[nH]c2ccccc12`, for which the inhibition result in assay [1] is “Active”. Still for that read-out and setting: with `O=c1cc(-c2ccc(O)c(O)c2)oc2cc(O)cc(O)c12` the entry was “Active”; with `COc1cc(/C=C\C(=O)NCCc2ccc(O)cc2)ccc1O`, “inactive”; with `CC(=O)/C=C/[C@@]12O[C@]1(C)C[C@@H](O)CC2(C)C`, “inactive”. In the case of `COC(=O)c1c[nH]c2ccccc12`, the inhibition result in assay [1] was “Active”.

Consider `O=Cc1ccccc1`, for which the inhibition result in assay [1] is “Active”. On the same count and under the same terms, with `CC1(C)C[C@@H](O)C[C@@]2(C)OC(=O)C=C12` the entry was “inactive”. For the molecule `CC1=CC(=O)CC(C)(C)/C1=C/C[C@@H](C)O`, the inhibition entry in assay [1] is “inactive”.

Consider `O=c1cc[nH]c(=O)[nH]1`, for which the inhibition entry in assay [1] is “Active”.

With `COc1cc(/C=C/C(=O)NCCc2ccc(O)cc2)ccc1O`, in assay [1], the inhibition result was “inactive”. On the same count and under the same terms, with `CC1(C)C[C@@H](O)C[C@]2(C)OC(=O)C=C12` the entry was “inactive”. With `O=Cc1c[nH]c2ccccc12`, the inhibition result in assay [1] was “Active”. Moreover, the inhibition in assay [2] was > 30%. Turning to `COc1cc(C(=O)O)ccc1O`, the inhibition result in assay [1] is “inactive”. As to `NC(=O)/C=C/c1ccc(O)cc1`, the inhibition entry in assay [1] was “Active”. Still for that read-out and setting: with `O=c1cc(-c2ccc(O)cc2)oc2cc(O)cc(O)c12` the entry was “Active”; with `O=C(/C=C/c1ccc(O)cc1)NCCc1ccc(O)cc1`, “Active”.

For `CC1=CC(=O)CC(C)(C)[C@@]1(O)CC[C@H](C)O`, the inhibition entry in assay [1] was “inactive”. The same measure, in the same setting: with `C=CCc1ccc(O[C@@H]2O[C@H](CO)[C@@H](O)[C@H](O)[C@H]2O)c(OC)c1` the entry was “inactive”. As to `COc1cc2oc(=O)ccc2cc1O`, the inhibition result in assay [1] is “Active”. In assay [2], the inhibition was > 30%.

`COc1cc2ccc(=O)oc2cc1O`: the inhibition entry in assay [1] was “Active”. Moreover, in assay [2], the inhibition was > 30%. As to `COc1cc(C(C)=O)ccc1O`, the inhibition result in assay [1] was “inactive”.

Turning to `CC(=O)/C=C/[C@@]1(O)C(C)=CC(=O)CC1(C)C`, the inhibition entry in assay [1] is “inactive”. With `CC(=O)C=C=C1C(C)(C)C[C@H](O)C[C@@]1(C)O`, in assay [1], the inhibition entry was “inactive”.

For orientation: inhibition means the drop in the measured response relative to a control, in per cent.

Values taken from ChEMBL document CHEMBL4184188, “Characterization of tyrosinase inhibitory constituents from the aerial parts of Humulus japonicus using LC-MS/MS coupled online assay” (Bioorg Med Chem, 2018).
